Data set [1] has as its target T1, topoisomerase I (Topo I) (Homo sapiens, UniProt P11387).
T1 sequence (P11387 1-765): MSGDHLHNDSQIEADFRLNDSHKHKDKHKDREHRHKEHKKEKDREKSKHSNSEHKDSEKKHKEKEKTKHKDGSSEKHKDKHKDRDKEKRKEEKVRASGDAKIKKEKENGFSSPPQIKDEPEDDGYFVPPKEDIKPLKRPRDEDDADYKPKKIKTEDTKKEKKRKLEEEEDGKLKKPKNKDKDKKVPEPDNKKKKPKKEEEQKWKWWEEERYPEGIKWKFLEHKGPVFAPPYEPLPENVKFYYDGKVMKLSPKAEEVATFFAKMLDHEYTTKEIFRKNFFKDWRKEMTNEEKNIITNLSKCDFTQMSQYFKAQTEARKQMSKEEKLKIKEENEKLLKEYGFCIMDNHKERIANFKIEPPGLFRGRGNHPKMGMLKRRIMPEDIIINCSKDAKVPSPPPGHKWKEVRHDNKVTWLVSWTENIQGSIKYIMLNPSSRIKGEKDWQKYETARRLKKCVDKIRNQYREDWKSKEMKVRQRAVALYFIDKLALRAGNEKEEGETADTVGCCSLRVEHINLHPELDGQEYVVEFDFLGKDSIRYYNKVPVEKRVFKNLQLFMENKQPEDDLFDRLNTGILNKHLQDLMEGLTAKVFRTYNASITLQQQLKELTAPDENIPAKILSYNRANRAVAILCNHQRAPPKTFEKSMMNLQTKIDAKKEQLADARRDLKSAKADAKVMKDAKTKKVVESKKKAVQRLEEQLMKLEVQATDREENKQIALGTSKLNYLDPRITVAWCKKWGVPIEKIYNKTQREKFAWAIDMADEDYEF
Put plainly: Topo I enzyme-inhibitory activity by agarose-gel electrophoresis (plasmid relaxation). It counts as biochemical. The text has this: Test Example 1. Determination of Topo I Enzyme-Inhibitory Activity by Agarose-Gel Electrophoresis
Principle: Type-I topoisomerase (Topo I) relaxes positive and negative supercoils by introducing transient single-strand breaks and forming reversible cleavage complexes (Topo I-DNA covalent complexes). Gel electrophoresis can resolve DNA species of identical molecular weight but different topology: supercoiled plasmid migrates fastest, whereas the nicked, relaxed form moves more slowly. Quantifying the decrease in supercoiled DNA therefore provides a direct measure of Topo I activity.
Experimental Procedure: A 1× reaction buffer was prepared (20 mM Tris-HCl pH 7.5, 200 mM NaCl, 0.25 mM EDTA, 5 % (v/v) glycerol, 0.5 µg pNO1 plasmid substrate). Test compounds (5 % DMSO final) were added to the buffer, followed by Topo I enzyme (0.75 U per reaction). After gentle mixing, reactions were incubated at 37 °C for 30 min. Positive (enzyme + vehicle) and negative (no enzyme) controls were included in parallel. Reactions were terminated by adding STEB buffer and chloroform/iso-amyl alcohol (24:1, v/v), vortexed and centrifuged for 2 min. The aqueous (upper) phase was loaded onto a 1 % (w/v) agarose gel, electrophoresed for 1-2 h, stained with GelRed, and imaged under UV trans-illumination.
Data Analysis: Band intensities of supercoiled DNA were quantified with image-analysis software. Relaxation activity (%) was calculated as (Max-Sample)/ (Max-Min)*100%, where Max = intensity of the no-enzyme negative control, Min = intensity of the vehicle-only positive control, and Sample = intensity of the compound-treated lane. Dose-response data (compound concentration, X; relaxation activity %, Y) were fitted in Excel or GraphPad Prism 5.0 using the four-parameter logistic equation: Y=Bottom + (Top-Bottom)/(1+(IC50/X)[…]) to derive the IC50 value for each compound.
Table 1. Compound-mediated inhibition of topoisomerase I (Topo I) enzymatic activity

Data set [2] can be described thus: Pharmacokinetic study in mice, plasma concentrations by LC-MS/MS. On the procedure:
Test Example 3. Pharmacokinetic Study for Determining Compound Concentrations in Mice by LC-MS/MS
Principle: LC-MS/MS is used to quantify the plasma concentrations of the test article at successive time points, generating an in-vivo pharmacokinetic profile.
Procedure: The test compound was dissolved in DMSO to prepare a 10 mg/mL stock solution. This stock was further diluted to 1 mg/mL with a vehicle consisting of 10 % DMSO + 10 % Solutol HS-15 + 80 % saline. Male CD-1 mice (JH Laboratory Animal Co., LTD) were employed; six animals were assigned per compound group. […] Serial blood samples (~50 µL whole blood, K2EDTA anticoagulant) were collected at 0.083, 0.25, 0.5, 1, 2, 4, 8 and 24 h (three mice per time point in a crossover design). Blood was centrifuged at 6 000 g for 5 min at 4 °C; plasma was harvested and stored at -70 °C until analysis. Plasma drug concentrations were determined by LC-MS/MS.
Calibration Curve and QC Preparation: Working solutions were prepared by dilution with MeOH:H2O (1:1). For each calibration or QC level, 3 µL of working solution was spiked into 57 µL of blank mouse plasma.
Sample Processing: To 30 µL of plasma was added 200 µL of methanol containing the internal standard (propranolol, 40 ng mL^-1). After vortex-mixing for 1 min, the mixture was centrifuged at 12 000 rpm for 10 min. A 100 µL aliquot of the supernatant was transferred to a clean plate for injection.
Pharmacokinetic Analysis: Concentration-time data were analyzed with WinNonlin 8.2 using a non-compartmental approach to derive PK parameters including Cmax, Tmax, AUC and terminal elimination half-life (t1/2). AUC was calculated by the linear-up/log-down trapezoidal method. Table 3. Pk parameters of compounds

For data set [3], the system named is HCT116 cells. Put plainly: Inhibition of cell proliferation by CTG (CellTiter-Glo) luminescence assay. It counts as cell-based. The settings on record: Homo sapiens, HCT-116; 72 h incubation, CellTiter-Glo; read-out: HCT116, IC50. The text has this: Test Example 2. Determination of Compound-Mediated Inhibition of Cell Proliferation by CTG (CellTiter-Glo) Luminescence Assay
Principle: The Promega CellTiter-Glo™ luciferase reagent was used. Luciferase consumes ATP to generate light; metabolically active cells continuously produce ATP through respiration and other processes. After adding an equal volume of CellTiter-Glo™ reagent to the culture medium, the resulting luminescence is directly proportional to the ATP content, which in turn correlates with the number of viable cells. Thus, the assay quantifies compound-induced suppression of cell proliferation.
Experimental Procedure: HCT116 cells (ATCC) were revived in complete medium (McCoy's 5a + 10 % FBS). After two passages, exponentially growing cells were harvested, counted, and resuspended to the appropriate density. A 100 µL aliquot of cell suspension (2 000 cells per well) was seeded into 96-well plates and incubated overnight (37 °C, 5 % CO2, 100 % relative humidity). Test compounds were dissolved in DMSO to prepare 10 mM stock solutions and serially diluted 1:3 in DMSO to generate nine concentration steps. Each DMSO solution was further diluted 200-fold into medium; 25 µL of the resulting solutions were added to the cell plates (final DMSO concentration […]). After 72 h incubation (37 °C, 5 % CO2), 50 µL of CellTiter-Glo reagent was added per well. Plates were shaken gently, incubated for 30 min at room temperature in the dark, and luminescence was read on an EnVision multimode reader. Percent inhibition was calculated as: Inhibition % = (1−As/Ac) × 100, [formula] where As = signal from compound-treated wells and Ac = signal from DMSO-only control wells. Concentration-response data were fitted in Excel with the XLfit add-in using the four-parameter logistic equation: Y = Bottom + (Top−Bottom)/[1+((IC50/X))^(∧)HillSlope], [formula] to derive the IC50 value for each compound. Table 2. IC50 of compounds
On the technique in general: Cellular ATP, detected with luciferase, serves as a proxy for viable cell number.

[4] abbreviates: 0.75 U Topo I, pNO1 plasmid, 37 °C, 30 min; compounds listed by group (Group A / Group B); read-out: inhibition of topoisomerase I (Topo I) enzymatic activity, IC50.
The mark [5] stands for this setting: male, CD-1, mouse, po, 20 mg/kg.
The mark [6] stands for this setting: male, CD-1, mouse, po, 10 mg/kg.

SMILES strings stand for the structures. Like-named read-outs stand apart in the source and are kept apart here.

With `CC[C@@]1(O)C(=O)OCc2c1cc1n(c2=O)Cc2c-1c(=O)c1cc(F)c([C@H](C)O)cc1n2C1CCCC1` (single isomer, unassigned) [Example 293], the IC50 (in general, the midpoint of a concentration-inhibition curve) in data set [1] (setting [4]) fell in the range of 200 to 500 nM.
As for `CC[C@@]1(O)C(=O)OCc2c1cc1n(c2=O)Cc2c-1c(=O)c1cc(F)c([C@@H](C)O)cc1n2C1CCCC1` (single isomer, unassigned) [Example 294], the IC50 in data set [1] (setting [4]) was in the range of 200 to 500 nM.
For the compound `CC[C@@]1(O)C(=O)OCc2c1cc1n(c2=O)Cc2c-1nc1cc(F)c(C)c3c1c2[C@@H](NC(=O)CO)CC3` [DXd], in data set [2] (mouse, in vivo, iv, 1 mg/kg), the AUC(0-t) (in general, exposure summed from dosing to a finite time, without extrapolation to infinity) at 24 h amounted to 154 ng·h/mL; the Cmax (usually the maximum level reached in the sampled fluid or tissue) was found to be 455 ng/mL; the clearance (as a rule, a measure of how efficiently the substance is removed, as volume per time) was 108 mL/min/kg; the half-life (as a rule, how long it takes for the measured level to halve) was 9.3 min. In data set [2] (mouse, in vivo, po, 10 mg/kg), the AUC(0-t) at 24 h turned out to be 4.32 ng·h/mL, the highest level (Cmax) was 6.99 ng/mL, the time to peak (Tmax) (commonly the time from dosing to the highest level) worked out at 19.8 min and the half-life is 23.4 min.
As for `CC[C@@]1(O)C(=O)OCc2c1cc1n(c2=O)Cc2c-1c(=O)c1cc(F)ccc1n2CCNC1CC1` [Example 96, (S)-11-(2-(cyclopropylamino)ethyl)-4-ethyl-8-fluoro-4-hydroxy-1,12-dihydro-14H-pyrano[3,4:6,7]indolizino[2,1-b]quinoline-3,6,14 (4H,11H)-trione], the 50% inhibitory concentration (IC50) in data set [1] (read-out: inhibition of topoisomerase I (Topo I) enzymatic activity, IC50; 0.75 U Topo I, pNO1 plasmid, 37 °C, 30 min; compounds listed by group (Group A / Group B)) was below 200 nM.
In the case of `CC[C@@]1(O)C(=O)OCc2c1cc1n(c2=O)Cc2c-1c(=O)c1cc(F)ccc1n2CCN(C)C1CC1` [Example 97, (S)-11-(2-(cyclopropyl(methyl)amino)ethyl)-4-ethyl-8-fluoro-4-hydroxy-1,12-dihydro-14H-pyrano[3,4:6,7]indolizino[2,1-b]quinoline-3,6,14(4H,11H)-trione], in data set [2] (mouse, in vivo), the bioavailability (as a rule, dose-corrected exposure relative to a reference, in per cent) stood at 34.5%. Further, in data set [2] (mouse, in vivo, iv, 1 mg/kg), the exposure AUC(0-t) at 24 h came to 114 ng·h/mL, the highest level (Cmax) was 256 ng/mL, the clearance is 146 mL/min/kg and the half-life was 28.9 min. For the same compound, in data set [2] (mouse, in vivo, po, 10 mg/kg), the area under the curve AUC(0-t) at 24 h was 395 ng·h/mL, the peak concentration (Cmax) turned out to be 131 ng/mL, the time of peak concentration (Tmax) amounted to 55.2 min and the half-life was 75.6 min.
`CC[C@@]1(O)C(=O)OCc2c1cc1n(c2=O)Cc2c-1c(=O)c1cc(F)ccc1n2[C@@H]1CCN(CCO)C1` [Example 252, (S)-4-ethyl-8-fluoro-4-hydroxy-11-((R)-1-(2-hydroxyethyl)pyrrolidin-3-yl)-1,12-dihydro-14H-pyrano[3',4':6,7]indolizino[2,1-b]quinoline-3,6,14(4H,11H)-trione] displayed a bioavailability in data set [2] (male, CD-1, mouse) of 43.1%. In data set [2] (male, CD-1, mouse, iv, 2 mg/kg), this compound had an AUC(0-t) of 674 ng·h/mL, a Cmax of 558 ng/mL, a clearance of 49.2 mL/min/kg and a half-life of 70.2 min. Besides, in data set [2] (setting [5]), the area under the curve AUC(0-t) was determined as 2820 ng·h/mL, the Cmax was 680 ng/mL, the time to peak (Tmax) is 79.8 min and the half-life was 345 min.
On to `CC[C@@]1(O)C(=O)OCc2c1cc1n(c2=O)Cc2c-1c(=O)c1cc(F)ccc1n2[C@@H]1CCN(C2CCCC2)C1` [Example 257, (S)-4-ethyl-8-fluoro-4-hydroxy-11-((R)-1-cyclopentylpyrrolidin-3-yl)-1,12-dihydro-14H-pyrano[3',4':6,7]indolizino[2,1-b] quinoline-3,6,14(4H,11H)-trione], for which the concentration for half-maximal inhibition (IC50) in data set [3] was below 20 nM. This compound also showed a bioavailability in data set [2] (male, CD-1, mouse) of 40.2%. In data set [2] (male, CD-1, mouse, iv, 1 mg/kg), this compound gave an exposure AUC(0-t) of 352 ng·h/mL, a Cmax of 635 ng/mL, a clearance of 47.4 mL/min/kg and a half-life of 74.4 min. In addition, in data set [2] (setting [6]), the exposure AUC(0-t) came to 1370 ng·h/mL, the highest concentration (Cmax) came out at 528 ng/mL, the Tmax was found to be 49.8 min and the half-life was 477 min.
Turning to `CC[C@@]1(O)C(=O)OCc2c1cc1n(c2=O)Cc2c-1c(=O)c1cc(F)ccc1n2[C@@H]1CCN(CC2CC2)C1` [Example 259, (S)-11-((R)-1-(cyclopropylmethyl)pyrrolidin-3-yl)-4-ethyl-8-fluoro-4-hydroxy-1H-pyrano[3',4':6,7]indolizino[2,1-b]quinoline-3,6,14(4H,11H,12H)-trione], the half-inhibitory concentration (IC50) in data set [3] is below 20 nM. The compound also had a bioavailability in data set [2] (male, CD-1, mouse) of 46.6%. In data set [2] (male, CD-1, mouse, iv, 1 mg/kg), this compound gave an AUC(0-t) of 524 ng·h/mL, a Cmax of 497 ng/mL, a clearance of 31.8 mL/min/kg and a half-life of 57.6 min. Further, in data set [2] (setting [6]), the AUC(0-t) amounted to 2400 ng·h/mL, the Cmax worked out at 1230 ng/mL, the Tmax was 49.8 min and the half-life was 374 min.
In the case of `CC[C@@]1(O)C(=O)OCc2c1cc1n(c2=O)Cc2c-1c(=O)c1cc(F)ccc1n2C[C@H]1CCN(C(C)C)C1` [Example 404], the half-inhibitory concentration (IC50) in data set [3] is below 20 nM.
For `CCc1c2c(nc3ccc(O)cc13)-c1cc3c(c(=O)n1C2)COC(=O)[C@]3(O)CC` [SN38], in data set [2] (mouse, iv, 1 mg/kg), the AUC(0-t) at 24 h came out at 103 ng·h/mL, the concentration peaked (Cmax) at 278 ng/mL, the clearance came out at 163 mL/min/kg and the half-life was 34 min. In data set [2] (mouse, po, 10 mg/kg), the exposure AUC(0-t) at 24 h was 0.23 ng·h/mL and the concentration peaked (Cmax) at 1.87 ng/mL.

The values above are taken from patent EP4778929A1, “NOVEL TYPE I TOPOISOMERASE INHIBITOR, AND PREPARATION METHOD THEREFOR AND USE THEREOF” (priority 2023, dated 2025).
